Data published in patent US20240408064A1, “RAS INHIBITORS, COMPOSITIONS AND METHODS OF USE THEREOF” (GENETOLEAD INC., priority 2021, published 2024).
Entries after “also recorded” stand apart in the source; their conditions may differ.

Columns and labels:
[1] = target: T1, HRas^G12V (Homo sapiens (Human), UniProt P01112, G12V); experiment: Overall binding/activity in the various assays (NMR consensus binding)
Method: (§1) Since the fragment library was curated using phosphate buffer, 25 mM sodium phosphate pH 7.4, 150 mM NaCl, 5 mM MgCl2, 1 mM TCEP-d16, 10% D2O Fresh TCEP was used for experiments. Screening was performed using ^1H-decoupled 1D ^19F experiment Bruker experiment (zgfhigqn.2) with 64 scans and a relaxation delay of 5 seconds. 50 μM HRas^G12V and 240 μM of each fragment in pools (mixtures) were used.
(§2) Hit confirmation was performed using the same ^19F experiment as the screen. Ligand-observed 1D ^1H, protein-observed 1D ^1H, ^1H T2-CPMG as well as Saturation Transfer Difference (STD) experiments were also run on the same samples. Ligand-observed 1D ^1H was run using the standard Bruker sequence with excitation sculpting (zgesgp) with a relaxation delay of 10 seconds and 16 scans per spectrum. Protein-observed 1D ^1H was performed using the same sequence with a relaxation delay of 1 second and 256 scans in order to increase the signal-to-noise of the protein resonances, while keeping the experimental time relatively short. The ^1H T2-CPMG experiment employed a modified version of the Bruker 1D ^1H zgesgp experiment with the addition of a CPMG pulse train after the first 90° excitation pulse. Total duration for each spin echo was fixed at 1 ms (τ=500 μs), while the number of echoes in the pulse train was varied according to the total time (T). The number of scans for each spectrum was 4 and eight delay times were run on each sample, ranging from 1 ms to 800 ms.
STD experiments consisted of two independent spectra with offsets of 0 ppm (on resonance) and −20 ppm (off resonance). […] 160 scans were acquired for each spectrum.
The results obtained with the compounds in the various assays described above are depicted in Table 21.
Because of its power to probe the intrinsically weak interactions (Kd) between targets and low-molecular weight fragments, NMR fragment-based lead discovery (FBLD) is a very useful biophysical method in early stage drug discovery, especially for challenging target proteins; including those with shallow binding pockets. Since FBLD screens are performed using low-molecular weight compounds (fragments) with lower structural complexity, the same chemical space can be covered using a smaller number of drug-like fragments versus use of large libraries of higher-molecular weight lead-like compounds as in high throughput screening (HTS) campaigns. Therefore, FBLD has a much higher hit rate than HTS using only several hundred to several thousand compounds in comparison with approximately 1 million compounds for HTS. Also, the small size of the compounds screened in FBLD means a better chance to fully match the interactions with small or transient pockets within the target protein, where these less tractable pockets cannot be accessed with standard classical HTS methods. […] We expect this methodology to be more advantageous than classical HTS methods for expediting the time from hit to lead (H2L) and allows for rapid access to high quality leads with lower attrition rates in subsequent lead optimization (LO) campaigns toward pre-clinical candidate selection. FBLD screening by NMR involves a “consensus binding” approach where several distinct NMR experiments (DLB, STD, CPMG) are applied along with a free-state aggregation detection method (T2-CPMG) to rank the compounds for their affinity to the receptor (HRAS in this case) whilst simultaneously monitoring the solution behavior and critical quality attributes of each compound. The latter helps to eliminate artifact binders which are highly problematic. We performed a fluorine screen involving 461 compounds that were derived from a highly curated fragment library. Moreover, two-dimensional ^15N HSQC NMR was also used to validate ligand-binding sites on the target protein. In addition, we employed protein-detected biophysical measurements were employed to determine fragment binding affinities to the target protein (Kd) by HSQC NMR. […]

[2] = target: T1, HRas^G12V; experiment: 19F DLB (ligand-observed 19F NMR) score; assay type: binding; set-up: scale not given here
Method: (§3) All NMR experiments were collected using 3 mm NMR tubes on a 600 MHz Bruker Avance III spectrometer equipped with a QCI helium cryoprobe and a SampleJet sample changer. The buffer used for NMR experiments was 25 mM sodium phosphate pH 7.4, 150 mM NaCl, 5 mM MgCl2, 1 mM TCEP-d16, 10% D2O. Data were processed using Bruker TopSpin.
as §1
as §2, with “ms. […]” for “ms.”

[3] = target: T1, HRas^G12V; experiment: 19F T2-CPMG NMR score; assay type: binding
Method: as §3, §1, §2
Because of its power to probe the intrinsically weak interactions (Kd) between targets and low-molecular weight fragments, NMR fragment-based lead discovery (FBLD) is a very useful biophysical method in early stage drug discovery, especially for challenging target proteins; including those with shallow binding pockets. Since FBLD screens are performed using low-molecular weight compounds (fragments) with lower structural complexity, the same chemical space can be covered using a smaller number of drug-like fragments versus use of large libraries of higher-molecular weight lead-like compounds as in high throughput screening (HTS) campaigns. Therefore, FBLD has a much higher hit rate than HTS using only several hundred to several thousand compounds in comparison with approximately 1 million compounds for HTS. Also, the small size of the compounds screened in FBLD means a better chance to fully match the interactions with small or transient pockets within the target protein, where these less tractable pockets cannot be accessed with standard classical HTS methods. […] We expect this methodology to be more advantageous than classical HTS methods for expediting the time from hit to lead (H2L) and allows for rapid access to high quality leads with lower attrition rates in subsequent lead optimization (LO) campaigns toward pre-clinical candidate selection. FBLD screening by NMR involves a “consensus binding” approach where several distinct NMR experiments (DLB, STD, CPMG) are applied along with a free-state aggregation detection method (T2-CPMG) to rank the compounds for their affinity to the receptor (HRAS in this case) whilst simultaneously monitoring the solution behavior and critical quality attributes of each compound. The latter helps to eliminate artifact binders which are highly problematic. We performed a fluorine screen involving 461 compounds that were derived from a highly curated fragment library. Moreover, two-dimensional ^15N HSQC NMR was also used to validate ligand-binding sites on the target protein. […]

Activity ranking on HRas^G12V (in words) [1]	19F DLB Score [2]	19F T2-CPMG Score [3]	Binding to HRas^G12V (in words) [1]	Compound
More active	Non conclusive	–	–	O=C(O)C[C@H](c1ccccc1F)c1c[nH]c2cc(F)ccc12 (single isomer, unassigned) [Compound 11052]
More active; also recorded: Most active	2.29	25.91	–	O=C(O)C[C@@H](c1ccccc1F)c1c[nH]c2cc(F)ccc12 (single isomer, unassigned) [Compound 11053]
–	1.32	3.96	low or no binding	O=C(Cc1ccc(F)cc1)NCCc1c[nH]c2cc(F)ccc12 [Compound 10012]
–	1.57	7.79	low or no binding	O=C(Cc1c[nH]c2cc(F)ccc12)NCCN1CCOCC1 [Compound 10015]
–	–	–	low or no binding	COC(=O)c1ccc(NC(=O)Cc2c[nH]c3cc(F)ccc23)cc1Cl [Compound 10017]
–	–	–	low or no binding	CCOC(=O)c1cccc(NC(=O)Cc2c[nH]c3cc(F)ccc23)c1 [Compound 10019]
–	–	–	low or no binding	Cc1c(Cl)cc(NC(=O)Cc2c[nH]c3cc(F)ccc23)cc1Cl [Compound 10022]
–	1.53	6.9	low or no binding	O=C(NCCc1c[nH]c2cc(F)ccc12)[C@@H]1CCCO1 [Compound 10023, (S)—N-(2-(6-fluoro-1H-indol-3-yl)ethyl) tetrahydrofuran-2-carboxamide]
–	1.06	0.01	low or no binding	Cn1cc(CC(=O)N2CCC2)c2ccc(F)cc21 [Compound 10024, 1-(azetidin-1-yl)-2-(6-fluoro-1-methyl-1H-indol-3-yl) ethan-1-one]
–	1.01	1.61	low or no binding	CN1CCC[C@@H]1C(=O)NCCc1c[nH]c2cc(F)ccc12 [Compound 10028]
–	1.19	1.2	low or no binding	O=C(Cc1c[nH]c2cc(F)ccc12)NCCc1cccnc1 [Compound 10029]
–	1.13	1.34	low or no binding	O=C(Cc1c[nH]c2cc(F)ccc12)NCCc1ccc(F)cc1 [Compound 10031]
–	–	–	low or no binding	Cc1ccc(NC(=O)Cc2c[nH]c3cc(F)ccc23)cc1Cl [Compound 10032]
–	–	–	low or no binding	COc1ccc(NC(=O)Cc2c[nH]c3cc(F)ccc23)cc1OC [Compound 10033]
–	1.6	−8.2	low or no binding	CCOC(=O)c1ccc(NC(=O)Cc2c[nH]c3cc(F)ccc23)c(C)c1 [Compound 10034]
–	1.22	2.32	low or no binding	CN1CCC[C@H]1C(=O)NCCc1c[nH]c2cc(F)ccc12 [Compound 10036]
–	1.25	4.07	low or no binding	CCOC(=O)[C@@H](C)NC(=O)Cc1c[nH]c2cc(F)ccc12 [Compound 10037]
–	1.1	2.19	low or no binding	CCOC(=O)[C@H](C)NC(=O)Cc1c[nH]c2cc(F)ccc12 [Compound 10038]
–	–	–	low or no binding	COc1ccccc1C(=O)NCCc1c[nH]c2cc(F)ccc12 [Compound 10043]
–	–	–	low or no binding	CCOC(=O)C(Cc1c[nH]c2ccccc12)NC(=O)Cc1c[nH]c2cc(F)ccc12 (centres unmarked) [Compound 10112]
–	16.69	–	low or no binding	CCOC(=O)CC(c1ccccc1F)c1c[nH]c2cc(F)ccc12 (centres unmarked) [Compound 11045]
–	2.79	22.81	–	O=C(C1CCNCC1)N1CCC(c2c[nH]c3cc(F)ccc23)CC1 [Compound 11047]
More active	Non conclusive	–	–	O=C(O)CC(c1cccc(O)c1)c1c[nH]c2cc(F)ccc12 (centres unmarked) [Compound 11054]
More active	Non conclusive	–	–	O=C(O)CC(c1ccc(O)cc1)c1c[nH]c2cc(F)ccc12 (centres unmarked) [Compound 11055]
–	Non conclusive	–	low or no binding	CC1(C)OC(=O)C(C(c2ccc(F)cc2F)c2c[nH]c3cc(F)ccc23)C(=O)O1 (centres unmarked) [Compound 11058]
–	–	–	low or no binding	CN(C)CC(=O)Nc1cccc(NC(=O)Cc2c[nH]c3cccc(Br)c23)c1 [Compound 11067]
–	–	–	low or no binding	CN(C)CC(=O)Nc1cccc(NC(=O)Cc2c[nH]c3cc(Cl)ccc23)c1 [Compound 11068]
–	–	–	low or no binding	CN(C)CC(=O)Nc1cccc(NC(=O)Cc2c[nH]c3c(Cl)cccc23)c1 [Compound 11070]
–	–	–	low or no binding	CN(C)CC(=O)Nc1cccc(NC(=O)Cc2c[nH]c3cccc(Cl)c23)c1 [Compound 11071]
–	2.87	25.25	–	CN(C)CCOC1CN(C(=O)Cc2c[nH]c3cc(F)ccc23)C1 [compound 10110]

Compound	Activity ranking on HRas^G12V (in words) [1]	19F DLB Score [2]	19F T2-CPMG Score [3]	Binding to HRas^G12V (in words) [1]
O=C(O)Cc1c[nH]c2c(Cl)cccc12 [Compound 11069]	–	–	–	low or no binding
